Results published in PubChem BioAssay AID1963826 (Molecular Pharmacology Branch, DTP, NCI, 2024).

System: 926638-142-R-J1-PDC complex spheroid viability
Assay: Anticancer human tumor 926638-142-R-J1-PDC patient-derived endometrial carcinoma cell line growth inhibition [POLQ]
Conditions: for IC50: curve of first compound; for viability, T/C: stronger effect = lower value
Protocol: Multicellular complex tumor spheroid response to Polymerase (POL) inhibitors (novobiocin, ART-558, RP6685) in combination with a variety of drugs and investigational agents in selected tumor cell lines
The POL inhibitors (novobiocin, ART-558, and RP6685) were evaluated both individually and in combination with standard of care and investigational anticancer small molecules within a complex spheroid model of solid tumors. . Complex spheroids include a stromal component modeled by human endothelial cells (HUVEC) and fibroblasts modeled by human mesenchymal stem cells (MSCs). The concentration ranges selected for each drug and investigational agent were based upon clinically achievable concentrations if the clinical Cmax of the agent was known.
Compounds. The drugs and investigational agents: novobiocin (NSC847541), ART-558 (NSC835418), RP-6685 (NSC848927), peposertib (NSC802822), ceralasertib (NSC780249), elimusertib (NSC800525), camonsertib (NSC841442), AZD-1390 (NSC803789), olaparib (NSC753686), talazoparib (NSC767125), rucaparib (NSC756644), sotorasib (NSC818433), MRTX-1133 (NSC836407), SN-38 (NSC673596), topotecan (NSC609699), epotoside (NSC141540), doxorubicin (NSC123127), gemcitabine (NSC613327), 5-fluorouracil (NSC19893), paclitaxel (NSC125973), vemurafenib (NSC761431), MSA-2 (NSC828583), SN-011 (NSC837082), adavosertib (NSC754352), prexasertib (NSC758257), carboplatin (NSC241240) and oxaliplatin (NSC266046), were obtained from the National Cancer Institute (NCI) Developmental Therapeutics Program Chemical Repository (21). The FDA-approved anticancer drug set is available from the Developmental Therapeutics Program at https://dtp.cancer.gov/organization/dscb/obtaining/. […] The stock solutions were prepared in dimethyl sulfoxide (DMSO, Sigma-Aldrich, St. Louis, MO, cat. D2650), except for the platinum compounds which were prepared in saline (Quality Biological, Gaithersburg, MD, cat. 114-055-101), at 800-fold the tested concentration and stored at -70 degrees C prior to their use. All drugs and investigational agents were tested over a range starting from a high concentration at or near the clinical Cmax and decreasing in half-log increments. If the clinical Cmax for an agent had not been determined, the highest concentration tested was 10 microM, except for SN-38, which was tested at a high concentration of 1 microM.
Cell Culture. All cells were maintained in an incubator at 37 degrees C and 5% CO2 with 95% humidity. The PDC lines were cultured according to standard operating procedures established by the NCI PDMR (https://pdmr.cancer.gov). Table 3 of the manuscript, lists the cell lines along with the number of the three cell types plated to form the mct-spheroids and media for tumor cell growth. After thawing, all PDC lines, except 997537-175-T-J1-PDC and 415267-285-R-J2-PDC, were cultured in Matrigel-coated flasks prepared with a working solution of 1X Ham's F-12 nutrient mix, without supplementation (Thermo Fisher Scientific, cat. 11765054), 100 U/mL penicillin-streptomycin (Thermo Fisher Scientific, cat. 15140122), and 2.5% Matrigel (Corning Inc., Corning, NY, cat. 354248) for the first three passages. The two PDC lines 997537-175-T-J1-PDC and 415267-285-R-J2-PDC were cultured on uncoated flasks. The 857933-349-R-J2-PDC line was cultured in 6C/Colon 1B media containing advanced DMEM/F-12 (Thermo Fisher Scientific, cat. 12634028), 10 mM HEPES (Thermo Fisher Scientific, cat. 15630080), 1X GlutaMAX supplement (Thermo Fisher Scientific, cat. 35050061), 0.1 mg/mL primocin (InvivoGen, San Diego, CA, cat. ant-pm-2), 10% defined fetal bovine serum, heat inactivated (HyClone Laboratories Inc., Logan, UT, cat. SH30070.03HI), 50% L-WRN conditioned media (ATCC, cat. CRL-3276), 1.25 mM N-Acetyl-L-cysteine (Sigma-Aldrich, cat. A9165), 10 mM nicotinamide (Sigma-Aldrich, cat. N0636), 1X B-27 supplement (Thermo Fisher Scientific, cat. 17504044), 1X N-2 supplement (Thermo Fisher Scientific, cat. […]

[1] = second compound 0.0316 µM, first compound 0.0316 µM
[2] = second compound 0.0316 µM, first compound 0.1 µM
[3] = second compound 0.0316 µM, first compound 0.316 µM
[4] = second compound 0.0316 µM, first compound 1 µM
[5] = second compound 0.1 µM, first compound 0.0316 µM
[6] = second compound 0.1 µM, first compound 0.1 µM
[7] = second compound 0.1 µM, first compound 0.316 µM
[8] = second compound 0.1 µM, first compound 1 µM
[9] = second compound 0.316 µM, first compound 0.0316 µM
[10] = second compound 0.316 µM, first compound 0.1 µM
[11] = second compound 0.316 µM, first compound 0.316 µM
[12] = second compound 0.316 µM, first compound 1 µM
[13] = second compound 1 µM, first compound 0.0316 µM
[14] = second compound 1 µM, first compound 0.1 µM
[15] = second compound 1 µM, first compound 0.316 µM
[16] = second compound 1 µM, first compound 1 µM
[17] = second compound 3.16 µM, first compound 0.0316 µM
[18] = second compound 3.16 µM, first compound 0.1 µM
[19] = second compound 3.16 µM, first compound 0.316 µM
[20] = second compound 3.16 µM, first compound 1 µM
[21] = second compound 10 µM, first compound 0.0316 µM
[22] = second compound 10 µM, first compound 0.1 µM
[23] = second compound 10 µM, first compound 0.316 µM
[24] = second compound 10 µM, first compound 1 µM
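Note: spheroids exposed to drugs for one week before readout.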
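Throughout, for viability, T/C: percent viability relative to DMSO vehicle control wells set as 100%.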

## CNCc1ccc(-c2[nH]c3cc(F)cc4c3c2CCNC4=O)cc1 + COC1C(OC(N)=O)C(O)C(Oc2ccc3c(O)c(NC(=O)c4ccc(O)c(CC=C(C)C)c4)c(=O)oc3c2C)OC1(C)C
Second compound 0.0316 µM
  IC50: > 10000 nM
Second compound 0.1 µM
  IC50: > 10000 nM
Second compound 0.316 µM
  IC50: > 10000 nM
Second compound 1 µM
  IC50: > 10000 nM
Second compound 3.16 µM
  IC50: > 10000 nM
Second compound 10 µM
  IC50: > 10000 nM
[1]
  viability, T/C: 92%
[2]
  viability, T/C: 82.2%
[3]
  viability, T/C: 96%
[4]
  viability, T/C: 81%
Second compound 0.0316 µM, first compound 3.16 µM
  viability, T/C: 87.7%
Second compound 0.0316 µM, first compound 10 µM
  viability, T/C: 76.7%
[5]
  viability, T/C: 78.9%
[6]
  viability, T/C: 99.9%
[7]
  viability, T/C: 77.2%
[8]
  viability, T/C: 89.2%
Second compound 0.1 µM, first compound 3.16 µM
  viability, T/C: 80.1%
Second compound 0.1 µM, first compound 10 µM
  viability, T/C: 81.2%
[9]
  viability, T/C: 90.5%
[10]
  viability, T/C: 81.1%
[11]
  viability, T/C: 84.9%
[12]
  viability, T/C: 90.5%
Second compound 0.316 µM, first compound 3.16 µM
  viability, T/C: 101%
Second compound 0.316 µM, first compound 10 µM
  viability, T/C: 84.6%
[13]
  viability, T/C: 77.3%
[14]
  viability, T/C: 73.9%
[15]
  viability, T/C: 73.8%
[16]
  viability, T/C: 89.9%
Second compound 1 µM, first compound 3.16 µM
  viability, T/C: 94.8%
Second compound 1 µM, first compound 10 µM
  viability, T/C: 69%
[17]
  viability, T/C: 82.3%
[18]
  viability, T/C: 93.9%
[19]
  viability, T/C: 90.7%
[20]
  viability, T/C: 71.2%
Second compound 3.16 µM, first compound 3.16 µM
  viability, T/C: 88.2%
Second compound 3.16 µM, first compound 10 µM
  viability, T/C: 85.2%
[21]
  viability, T/C: 89.8%
[22]
  viability, T/C: 79.9%
[23]
  viability, T/C: 83.8%
[24]
  viability, T/C: 70.5%
Second compound 10 µM, first compound 3.16 µM
  viability, T/C: 84.4%
Second compound 10 µM, first compound 10 µM
  viability, T/C: 83%

## COc1cccc(OCCCN)c1-c1cc(Nc2cnc(C#N)cn2)n[nH]1 + COC1C(OC(N)=O)C(O)C(Oc2ccc3c(O)c(NC(=O)c4ccc(O)c(CC=C(C)C)c4)c(=O)oc3c2C)OC1(C)C
Second compound 0.0316 µM
  IC50: 146 nM
Second compound 0.1 µM
  IC50: 122 nM
Second compound 0.316 µM
  IC50: 113 nM
Second compound 1 µM
  IC50: 107 nM
Second compound 3.16 µM
  IC50: 70.5 nM
Second compound 10 µM
  IC50: 77.7 nM
Second compound 0.0316 µM, first compound 0.00316 µM
  viability, T/C: 104%
Second compound 0.0316 µM, first compound 0.01 µM
  viability, T/C: 96.4%
[1]
  viability, T/C: 65.9%
[2]
  viability, T/C: 61.8%
[3]
  viability, T/C: 36%
[4]
  viability, T/C: 24.8%
Second compound 0.1 µM, first compound 0.00316 µM
  viability, T/C: 111%
Second compound 0.1 µM, first compound 0.01 µM
  viability, T/C: 79%
[5]
  viability, T/C: 68.3%
[6]
  viability, T/C: 56.6%
[7]
  viability, T/C: 39%
[8]
  viability, T/C: 31.5%
Second compound 0.316 µM, first compound 0.00316 µM
  viability, T/C: 94.2%
Second compound 0.316 µM, first compound 0.01 µM
  viability, T/C: 74.5%
[9]
  viability, T/C: 62.7%
[10]
  viability, T/C: 51.4%
[11]
  viability, T/C: 42.2%
[12]
  viability, T/C: 35.2%
Second compound 1 µM, first compound 0.00316 µM
  viability, T/C: 87.7%
Second compound 1 µM, first compound 0.01 µM
  viability, T/C: 77.9%
[13]
  viability, T/C: 47.3%
[14]
  viability, T/C: 56.4%
[15]
  viability, T/C: 49.1%
[16]
  viability, T/C: 29.6%
Second compound 3.16 µM, first compound 0.00316 µM
  viability, T/C: 92.6%
Second compound 3.16 µM, first compound 0.01 µM
  viability, T/C: 89.3%
[17]
  viability, T/C: 60.4%
[18]
  viability, T/C: 46.2%
[19]
  viability, T/C: 46.5%
[20]
  viability, T/C: 31.7%
Second compound 10 µM, first compound 0.00316 µM
  viability, T/C: 81.2%
Second compound 10 µM, first compound 0.01 µM
  viability, T/C: 80.8%
[21]
  viability, T/C: 65%
[22]
  viability, T/C: 44.5%
[23]
  viability, T/C: 36.9%
[24]
  viability, T/C: 27.9%
